Reference: patent US20060263340A1, “Treating gastrointestinal diseases with modulators of retinoic acid” (priority 2005, published 2006)

Columns and labels:
B cells = experiment: In vivo homing of B cells activated with anti-IgM antibody in the presence or absence of retinoic acid; parameters: species or system mouse
Description: FIG. 16 illustrates the effect of retinoic acid (RA) in the homing potential of B cells activated with an anti IgM antibody. Mouse spleen B cells are activated with an anti-IgM antibody, either with or without RA, and in the presence of non-intestinal dendritic cells (D1-DC) to improve the effector B cell viability. After 4 days in culture, naïve, B220^+ and B220^Neg (plasmablasts) effector B cells are assayed for (A) α4β7 (MFI: mean fluorescence intensity). (B) CCR9, and (C-D) migration of B cells activated in the presence or the absence of RA. […] In addition, most of the cells localizing in the small bowel mucosa are B220^Low/Neg (plasmablasts). (D) Bar graphs showing the mean±SE of 2 independent experiments. The homing indices (HI) indicate how much more (or less) B cells activated in the presence of RA migrate with respect to those activated without RA in a given tissue (HI=1 means no difference). […]
Dendritic cells treated with retinoic acid (RA) as described in FIGS. 3-6, or gut derived DC (e.g. mobilized from Peyer's patches or mesenteric lymph nodes), or RA itself (see FIG. 15) can be used to activate naive or effector/memory T and/or B cells. […] After 4-5 days, the resulting effector T and/or B cells are analyzed for their expression of gut or skin homing molecules and migratory behavior (see FIG. 16).

T cells = experiment: In vivo migration of T cells activated with D1-DC pretreated with RA; details: T cells activated with D1-DC pretreated with RA for 3 days, injected into mice; average of two independent experiments (FIG. 19B)

## CC1=C(/C=C/C(C)=C/C=C/C(C)=C/C(=O)O)C(C)(C)CCC1 [RA, retinoic acid]
B cells; average of 2 independent experiments (FIG. 16D)
  migration of B cells into the small bowel lamina propria as compared to those activated without RA (homing index): more than 10 times
B cells; mouse spleen B cells activated with anti-IgM with RA, in presence of D1-DC, representative homing experiment (FIG. 16C)
  localization of B cells in the small bowel lamina propria as compared to B cells activated without RA: 24 times
T cells
  migration of T cells to the intestinal mucosa as compared to those activated with control D1-DC: 200 times
